Reference: patent US20090176817A1, “Method of Treatment of Diarrhea-Predominant Irritable Bowel Syndrome in a Subject” (priority 2005, published 2009)
Marks after values point to notes of the source that are not given here.

Legend:
human 5-HT3 receptor = biological target: T1, human 5-HT3 receptor (Homo sapiens, UniProt P46098); test: 5-HT3 receptor binding
T1 sequence (P46098 24-478): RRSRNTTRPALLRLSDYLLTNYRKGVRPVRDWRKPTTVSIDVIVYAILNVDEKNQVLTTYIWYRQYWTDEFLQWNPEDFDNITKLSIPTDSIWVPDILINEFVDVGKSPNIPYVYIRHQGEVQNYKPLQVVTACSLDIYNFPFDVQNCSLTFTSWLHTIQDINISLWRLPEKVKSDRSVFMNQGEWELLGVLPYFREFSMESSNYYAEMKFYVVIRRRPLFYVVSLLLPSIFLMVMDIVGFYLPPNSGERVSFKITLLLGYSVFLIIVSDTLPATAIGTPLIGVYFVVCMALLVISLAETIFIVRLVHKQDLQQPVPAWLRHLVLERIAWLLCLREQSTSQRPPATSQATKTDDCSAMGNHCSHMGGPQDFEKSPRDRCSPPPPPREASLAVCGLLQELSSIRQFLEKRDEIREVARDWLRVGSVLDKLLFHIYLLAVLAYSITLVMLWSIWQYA

[1] = Study S.241.1.103: 14C mass balance, 8 mg oral and IV; assay type: in vivo, human
Method: The extent of absorption, distribution, metabolism, and elimination of cilansetron has been examined in an open-label, randomized, two period, crossover, mass balance study in 6 healthy male subjects who were treated with a single oral and single […] (30-minute infusion) of 8 mg ^14C-labeled (50 K μCi) cilansetron, with a washout of at least 2 weeks between periods. The ^14C-cilansetron was appropriately labeled in the aromatic ring and the label was therefore not metabolically labile. Serial blood samples, urine collection, and fecal collection were performed up to 144 hours following each dose. ^14C-radioactivity was measured in plasma, whole blood, urine, and feces, and unchanged cilansetron was measured in plasma and urine. Identification of metabolites of cilansetron was performed in plasma, urine, and feces. The results of this study are presented in Table 2.7.2.3.15 and the mean concentration-time plots for ^14C-radioactivity and unchanged cilansetron are shown in FIG. 24 and FIG. 25.
Cilansetron and metabolite profiles in plasma, urine, and feces were evaluated using HPLC separation followed by determination of radioactivity using scintillation counting. Cilansetron, (4R)-hydroxy cilansetron, and (4S)-hydroxy cilansetron accounted for 29.3%, 25.7%, and 13.8% of the total radioactivity, respectively, in plasma at 6 hours after oral administration, and for 46.2%, 20.0% and 14.1%3 of the total radioactivity in plasma at 3 hours after IV administration. The cumulative percent of cilansetron and 4-hydroxy metabolites excreted in urine over a 48-hour interval following dosing was 0.5% and 32.8% of the dose, respectively, following oral dosing, and 1.1% and 31.9% of the dose following IV dosing. In the case of fecal excretion over a 96-hour postdose, cilansetron, (4R)-hydroxy cilansetron, and (4S)-hydroxy cilansetron accounted for 1.2%, 6.9%, and 4.6% of the dose following oral administration, and 1.3%, 5.1%, and 11.3% of the dose following IV administration.

[2] = Study S.241.1.109: interaction with fluvoxamine 50 mg QD; assay type: in vivo, human; conditions: for AUC(0-τ) / Cmax / Tmax: steady state; for AUC(0-τ): AUC(0-8); for AUC(0-τ) / Cmax: arith. mean; for Tmax: median
Method: In an open-label, randomized, parallel-group study in three groups of 12 healthy, male and female subjects (aged 19 to 45 years), subjects received a 2 mg single dose of cilansetron on Day 1, 2 mg TID on Days 2-13, and a 2 mg single dose on Day 14. […] All morning doses of cilansetron and enzyme inhibitors were administered immediately after a standard breakfast. […] For each treatment group, log-transformed cilansetron AUC(0-τ) and Cmax values on Day 14 (cilansetron+enzyme inhibitor) were compared statistically versus values on Day 7 (cilansetron alone).
FIG. 42, FIG. 43, and FIG. 44 present geometric mean steady-state plasma concentration-time profiles for cilansetron and its 4-hydroxy metabolites in the absence and presence of concomitant fluvoxamine.

[3] = Study S.241.1.109: single and multiple dose pharmacokinetics 2 mg TID; assay type: in vivo, human; conditions: for Tmax: median (min, max)
Method: In an open-label, randomized, parallel-group study in 36 healthy, male and female subjects (19-45 years), subjects received a 2 mg single dose of cilansetron on Day 1 and 2 mg TID on Days 2-7. The morning doses on Days 1 and 7 were administered immediately after a standard breakfast. Serial blood samples for the measurement of single-dose and steady-state pharmacokinetics of cilansetron and its main metabolites, (4R)-hydroxy cilansetron and (4S)-hydroxy cilansetron, were collected on Day 1 (single dose) up to 24 hours postdose and on Day 7 (multiple dose) up to 8 hours postdose.

[4] = Cilansetron 2 mg TID + Fluvoxamine 50 mg once daily
[5] = Cilansetron 2 mg TID alone (fluvoxamine group)
[6] = cilansetron + fluvoxamine / cilansetron alone, ANOVA of log-transformed data

Cc1nccn1CC1CCc2c(c3cccc4c3n2CC[C@H]4O)C1=O (stereo partly drawn) [(4R)-hydroxy cilansetron]
pKi (human 5-HT3 receptor): 8.5 | Share of total radioactivity in plasma ([1]; 3 hours after IV administration): 20.0% | Share of total radioactivity in plasma ([1]; 6 hours after oral administration): 25.7% | Fecal excretion over 96 hours ([1]; IV): 5.1 % of the dose | Fecal excretion over 96 hours ([1]; oral): 6.9 % of the dose | AUC(0-τ) [2, 4]: 9.57 ng·h/mL | Cmax [2, 4]: 1.63 ng/mL | Tmax [2, 4]: 0.75 h | AUC(0-τ) [2, 5]: 12.9 ng·h/mL | Cmax [2, 5]: 2.74 ng/mL | Tmax [2, 5]: 1.75 h | AUC(0-τ) Ratio (Treatment B/A) [2, 6]: 76% | Cmax Ratio (Treatment B/A) [2, 6]: 60% | Mean AUC decrease with fluvoxamine ([2]; human, in vivo): 24% | Mean Cmax decrease with fluvoxamine ([2]; human, in vivo): 40% | AUC(0-τ) ([3]; 2 mg TID, Day 7): 12.9 (18) ng · h/mL | Cmax ([3]; 2 mg TID, Day 7): 2.66 (22) ng/mL | AUC(0-inf) ([3]; 2 mg single dose, Day 1): 11.7 (18) ng · h/mL | AUC(0-τ) ([3]; 2 mg single dose, Day 1): 8.43 (21) ng · h/mL | Cmax ([3]; 2 mg single dose, Day 1): 1.92 (27) ng/mL | T½ ([3]; 2 mg single dose, Day 1): 3.89 (15) h | AUC accumulation ratio Day 7/Day 1 ([3]; AUC(0-τ)): 147^d % | Linearity Ratio ([3]; AUC(0-τ) Day 7 to AUC(0-inf) Day 1): 107% | Tmax ([3]; Day 1): 2.00 (0.50, 4.00)^b h | Accumulation following TID dosing (mean increase) ([3]; Day 7:Day 1, AUC(0-τ) and Cmax): 35-47% | Tmax ([3]; Day 7): 2.00 (0.75, 4.00)^b h | Time of peak concentration ([3]; after cilansetron dosing): approximately 2 hours | half-life ([3]; approximate mean): approximately 4 hours | AUC(0-τ) (Day 7) to AUC(0-inf) (Day 1) mean ratio ([3]; human, in vivo): 1.07 | Cmax accumulation ratio Day 7/Day 1 ([3]; human, in vivo): 135^e %
